# Data published in article PMC7407491, “The Addition of a Synthetic LPS-Targeting Domain Improves Serum Stability While Maintaining Antimicrobial, Antibiofilm, and Cell Stimulating Properties of an Antimicrobial Peptide” (Biomolecules, 2020).
# Bridge positions count the residues as written; N and C are the ends. Peptide text beside a SMILES is read from it.
# Columns and labels:
# [1] = test system: pre-formed S. typhimurium biofilm; assay: Pre-formed biofilm destruction assay, crystal violet; type: cell-based, Salmonella typhimurium; settings: 48 h pre-formed biofilm, 3 h peptide treatment 37 °C, crystal violet OD 590 nm; p < 0.05 vs control; three independent experiments, n = 6
# Protocol: To test the destruction of preformed biofilms, in a 96-well plate, 15 µL of overnight culture, of either E. coli, S. typhimurium, or MRSA, was added to 150 µL of minimal salt media (40 mM […]; 22 mM KH2PO4; […] NH4CL; 740 mM NaCl; 2 mM MgSO4; 0.1 mM CaCl2; 22 mM supplemented with D-Glucose) in each well. Plates were placed in a static incubator at 37 °C for 48 h; the time required for untreated wells to form biofilm. After formation, minimal salt media was removed and wells were treated with 155 µL of minimal salt media containing PG-1 or SynPG-1. […] Plates were placed in a static incubator at 37 °C for 3 h. After 3 h, treated media was removed and wells were rinsed with 155 µL of PBS to remove planktonic cells. After sufficient drying of wells, 150 µL of 0.1% crystal violet stain was added to each well and incubated at room temperature for 30 min, after which dye was removed and wells were rinsed again with 155 µL of PBS. After sufficient drying of wells, 150 µL of 70% ethanol solution was added to each well and incubated at room temperature for 30 min. After 30 min, 100 µL of each well was added to a new 96-well plate and absorbance was measured at an OD of 590 nm.
# MRSA = type: cell-based, Methicillin-resistant Staphylococcus aureus; settings: 2 h, pH 7
# Protocol: (§1) Veterinary clinical isolates, including Salmonella typhimurium, multi-drug resistant Escherichia coli, methicillin-resistant Staphylococcus aureus (MRSA), and methicillin-resistant Staphylococcus pseudointermedius (MRSP), were kindly provided by Dr. H. Cai (Department of Pathobiology, University of Guelph, ON, Canada). An antibiogram for these strains is available in the supplementary text (Table S1). Gram-negative strains were cultured in Luria−Bertani (LB) broth. Gram-positive strains were cultured in Tryptic soy broth (TSB). Both cultures were grown under aerobic conditions at 37 °C.
# (§2) The minimum bactericidal concentration (MBC) of SynPG-1 against the tested pathogens was identified through a broth macrodilution antimicrobial assay as previously described, with some modification. […] The buffer volume was adjusted to accommodate the addition of SynPG-1 and PG-1 so that the final solution volume was 0.5 mL for each tested concentration. Final peptide concentrations ranged from 0.1 µg/mL to 8 µg/mL. PG-1 at the known MBC (2 µg/mL E. coli; 4 µg/mL S. typhimurium; 0.5 µg/mL MRSP; 0.5 µg/mL MRSA) was considered the in-house positive control, while the suspension containing no peptide was considered the negative control. Experimental and control tubes were incubated for 2 h at 37 °C without shaking to allow for bactericidal action to occur. […] Colony numbers from each plate were recorded. […]
# MRSP = type: cell-based, Methicillin-resistant Staphylococcus pseudointermedius; settings: 2 h, pH 7
# Protocol: as §1, §2
# MRSA biofilm = assay: Biofilm inhibition assay, crystal violet; type: cell-based, Methicillin-resistant Staphylococcus aureus; settings: minimal salt media, 48 h 37 °C static, crystal violet OD 590 nm; p < 0.05 vs control; concentration dependent
# Protocol: Plates were placed in a static incubator at 37 °C for 48 h; the time required for untreated wells to form biofilm. After incubation, treated media was removed and wells were rinsed with 155 µL of PBS to remove planktonic cells. After sufficient air drying of wells, 150 µL of 0.1% Crystal violet stain was added to each well and incubated at room temperature for 30 min, after which, dye was removed and wells were rinsed again with 155 µL of PBS. After sufficient drying of wells, 150 µL of 70% ethanol solution was added to each well and incubated at room temperature for 30 min. After 30 min, 100 µL of each well was added to a new 96-well plate and absorbance was measured at an OD of 590 nm.
# Escherichia coli = type: cell-based; settings: 2 h, pH 7
# Protocol: as §1, §2
# IPEC-J2 cells = assay: In vitro cell migration, transwell assay; type: cell-based, porcine; settings: transwell 8-micron, serum-free DMEM F-12, 5 to 20 µg/mL, 16 h, Hoechst 33342 count; SynPG-1 not significant at higher concentrations
# Protocol: A cell line, established from intestinal porcine enterocytes, isolated from the jejunum of a neonatal unsuckled piglet (IPEC-J2 cells, DSMZ), was grown in monolayer culture in Dulbecco’s modified Eagle’s medium (high glucose), supplemented with 10% fetal bovine serum (FBS) from Invitrogen, 100 IU/mL penicillin, and 100 µg/mL streptomycin. Cultures were maintained in a 5% CO2 humidified atmosphere at 37 °C and passaged every 2–3 days, with detachment via the Trypsin-EDTA solution (Sigma).
# To evaluate migration of IPEC-J2 cells, 8-micron pore-sized cell culture transwell inserts were used (Millipore Inc, Temecula, CA, USA). A total of 1 × 10^5 cells were plated in the upper inserts of the transwell and placed within 24-well plates, containing serum-free DMEM F-12 in the absence and presence of SynPG-1 or PG-1, at concentrations ranging from 5 µg/mL to 20 µg/mL. After incubation for 16 h, the cells were fixed with 4% (w/v) paraformaldehyde. […] Migration was quantified by cell enumeration through Hoechst 33342 staining of cell nuclei (Thermo Fisher Scientific, Mississauga, ON, Canada). The results are represented as the relative fold increase in migrated cells when compared to the baseline migration of IPEC-J2 cells in serum-free media after 16 h.
# [2] = 25% porcine intestinal fluid (pH 6.5) in PBS, 1 mg/mL peptide, 1 h 37 °C with shaking; residual activity vs E. coli at 20 µg/mL, colony count; three independent experiments
# Protocol: Porcine digestive fluids were collected, as previously described by Wang et al. [44]. […] The gastrointestinal tract was kept at 4 °C during dissection, and collection of contents from the stomach and upper small intestine (duodenum and jejunum) was conducted within 5 h of sacrifice. Contents were centrifuged at 10,000 rpm (9600× g) for 10 min at 4 °C, and supernatant fluid was collected and stored at −80 °C until its use in the stability experiment. The pH of the collected supernatants were 3.5 and 6.5 for gastric fluid and duodenum fluid, respectively.
# Procedures similar to those used by Egger et al. [45] were used for this experiment. […] Suspension containing no peptide was considered the negative control. After incubation, 10 µL of the incubated solutions was added for a total volume of 0.5 mL, consisting of 20 µL of mid-logarithmic phase E. coli cells, diluted to a concentration of about 1 × 10^5 CFU/mL, and 470 µL of 20 mM sodium phosphate buffer (pH 7). […] Stability in porcine digestive fluid was evaluated as the relative colony growth on plates from bacterial grown with digestive fluid and peptide treatments, in comparison to plates grown from bacteria grown with digestive fluid alone.
# Stability was evaluated by comparing the mean growth of colonies on plates treated with peptides incubated in digestive fluids to colonies grown when treated without peptide. […]
smiles,measurement,setting,value
"CC[C@H](C)[C@H](NC(=O)[C@H](CCCCN)NC(=O)[C@H](CCCNC(=N)N)NC(=O)[C@H](CC(C)C)NC(=O)[C@H](CC(C)C)NC(=O)[C@H](CCCNC(=N)N)NC(=O)[C@H](CCCNC(=N)N)NC(=O)[C@H](CC(C)C)NC(=O)CN)C(=O)N[C@@H](CCCNC(=N)N)C(=O)NCC(=O)N[C@@H](CCCNC(=N)N)C(=O)N[C@@H](Cc1c[nH]c2ccccc12)C(=O)N[C@@H](CCCCN)C(=O)NCC(=O)NCC(=O)NCC(=O)N[C@@H](CCCNC(=N)N)C(=O)NCC(=O)NCC(=O)N[C@@H](CCCNC(=N)N)C(=O)N[C@@H](CC(C)C)C(=O)N[C@H]1CSSC[C@@H](C(=O)N[C@H](C(=O)NCC(=O)N[C@@H](CCCNC(=N)N)C(=O)O)C(C)C)NC(=O)[C@H](C(C)C)NC(=O)[C@@H]2CSSC[C@H](NC(=O)[C@H](Cc3ccc(O)cc3)NC1=O)C(=O)N[C@@H](CCCNC(=N)N)C(=O)N[C@@H](CCCNC(=N)N)C(=O)N[C@@H](CCCNC(=N)N)C(=O)N[C@@H](Cc1ccccc1)C(=O)N2 [SynPG-1, Syn-Protegrin-1] (H-GLRRLLRKIRGRWKGGGRGGRLCYCRRRFCVCVGR-OH; disulfide 23-32, 25-30; N-terminus and C-terminus assumed)",Concentration with significant disruption of pre-formed biofilm,[1],8 µg/mL
same,MBC,MRSA,0.5 (0.09) μg/mL
same,MBC,MRSP,0.5 (0.09) μg/mL
same,Concentration at which inhibition of biofilm formation was seen,MRSA biofilm,2 µg/mL
same,MBC,Escherichia coli,2 µg/mL
same,Concentration at which cell migration increased significantly,IPEC-J2 cells,5 µg/mL
same,Antimicrobial activity after incubation in 25% porcine intestinal fluid,[2],mean % growth of control increased
